From ChEMBL document CHEMBL3351417, “Thiophene-3-carboxamide analogue of annonaceous acetogenins as antitumor drug lead” (Eur J Med Chem, 2014)

test system: not listed separately; experiment: Growth inhibition of human RXF631L cells after 48 hrs by sulforhodamine B colorimetric assay; format: functional; settings: RXF 631, 48 h

Which GI50 does the source give for `CCCCCCCCCCCC[C@@H](O)[C@H]1CC[C@H]([C@H](O)CCCCCCCCCCCCC2=C[C@H](C)OC2=O)O1` [REL-SOLAMIN] here?
The GI50 was greater than 100 µM.

test system: not listed separately; experiment: Growth inhibition of human SNB78 cells after 48 hrs by sulforhodamine B colorimetric assay; format: functional; settings: SNB-78, 48 h

With `CCCCCCCCCCCC[C@@H](O)[C@H]1CC[C@H]([C@H](O)CCCCCCCCCCCCC2=C[C@H](C)OC2=O)O1` [REL-SOLAMIN] as the compound, how does the GI50 read?
Its GI50 is greater than 100 µM.

test system: not listed separately; experiment: Growth inhibition of human DMS273 cells after 48 hrs by sulforhodamine B colorimetric assay; format: functional; settings: DMS-273, 48 h

Which GI50 does the source give for `CCCCCCCCCCCC[C@@H](O)[C@H]1CC[C@H]([C@H](O)CCCCCCCCCCCCC2=C[C@H](C)OC2=O)O1` [REL-SOLAMIN] here?
The GI50 was greater than 100 µM.

test system: not listed separately; experiment: Growth inhibition of human MKN1 cells after 48 hrs by sulforhodamine B colorimetric assay; format: functional; settings: MKN-1, 48 h

For `CCCCCCCCCCCC[C@@H](O)[C@H]1CC[C@H]([C@H](O)CCCCCCCCCCCCC2=C[C@H](C)OC2=O)O1` [REL-SOLAMIN], which GI50 is on record?
The GI50 was greater than 100 µM.

test system: A549; experiment: Growth inhibition of human A549 cells after 48 hrs by sulforhodamine B colorimetric assay; format: functional; settings: A549, 48 h

For `CCCCCCCCCCCC[C@@H](O)[C@H]1CC[C@H]([C@H](O)CCCCCCCCCCCCC2=C[C@H](C)OC2=O)O1` [REL-SOLAMIN], which GI50 is on record?
Its GI50 is greater than 100 µM.

test system: SNB-75; experiment: Growth inhibition of human SNB75 cells after 48 hrs by sulforhodamine B colorimetric assay; format: functional; settings: SNB-75, 48 h

Which GI50 does the source give for `CCCCCCCCCCCC[C@@H](O)[C@H]1CC[C@H]([C@H](O)CCCCCCCCCCCCC2=C[C@H](C)OC2=O)O1` [REL-SOLAMIN] here?
The GI50 was greater than 100 µM.

test system: NCI-H226; experiment: Growth inhibition of human NCI-H226 cells after 48 hrs by sulforhodamine B colorimetric assay; format: functional; settings: NCI-H226, 48 h

For `CCCCCCCCCCCC[C@@H](O)[C@H]1CC[C@H]([C@H](O)CCCCCCCCCCCCC2=C[C@H](C)OC2=O)O1` [REL-SOLAMIN], which GI50 is on record?
Its GI50 is greater than 100 µM.

test system: St-4; experiment: Growth inhibition of human St-4 cells after 48 hrs by sulforhodamine B colorimetric assay; format: functional; settings: St-4, 48 h

With `CCCCCCCCCCCC[C@@H](O)[C@H]1CC[C@H]([C@H](O)CCCCCCCCCCCCC2=C[C@H](C)OC2=O)O1` [REL-SOLAMIN] as the compound, how does the GI50 read?
Its GI50 is greater than 100 µM.

test system: not listed separately; experiment: Growth inhibition of human HBC5 cells after 48 hrs by sulforhodamine B colorimetric assay; format: functional; settings: HBC5, 48 h

Which GI50 does the source give for `CCCCCCCCCCCC[C@@H](O)[C@H]1CC[C@H]([C@H](O)CCCCCCCCCCCCC2=C[C@H](C)OC2=O)O1` [REL-SOLAMIN] here?
The GI50 was greater than 100 µM.

test system: MDA-MB-231; experiment: Growth inhibition of human MDA-MB-231 cells after 48 hrs by sulforhodamine B colorimetric assay; format: functional; settings: MDA-MB-231, 48 h

For `CCCCCCCCCCCC[C@@H](O)[C@H]1CC[C@H]([C@H](O)CCCCCCCCCCCCC2=C[C@H](C)OC2=O)O1` [REL-SOLAMIN], which GI50 is on record?
The GI50 was greater than 100 µM.

test system: KM12; experiment: Growth inhibition of human KM12 cells after 48 hrs by sulforhodamine B colorimetric assay; format: functional; settings: KM12, 48 h

With `CCCCCCCCCCCC[C@@H](O)[C@H]1CC[C@H]([C@H](O)CCCCCCCCCCCCC2=C[C@H](C)OC2=O)O1` [REL-SOLAMIN] as the compound, how does the GI50 read?
The GI50 was greater than 100 µM.

test system: not listed separately; experiment: Growth inhibition of human PC3 cells after 48 hrs by sulforhodamine B colorimetric assay; format: functional; settings: PC-3, 48 h

For `CCCCCCCCCCCC[C@@H](O)[C@H]1CC[C@H]([C@H](O)CCCCCCCCCCCCC2=C[C@H](C)OC2=O)O1` [REL-SOLAMIN], which GI50 is on record?
Its GI50 is greater than 100 µM.

test system: not listed separately; experiment: Growth inhibition of human OVCAR3 cells after 48 hrs by sulforhodamine B colorimetric assay; format: functional; settings: OVCAR-3, 48 h

With `CCCCCCCCCCCC[C@@H](O)[C@H]1CC[C@H]([C@H](O)CCCCCCCCCCCCC2=C[C@H](C)OC2=O)O1` [REL-SOLAMIN] as the compound, how does the GI50 read?
Its GI50 is greater than 100 µM.

test system: not listed separately; experiment: Growth inhibition of human MKN74 cells after 48 hrs by sulforhodamine B colorimetric assay; format: functional; settings: MKN-74, 48 h

Which GI50 does the source give for `CCCCCCCCCCCC[C@@H](O)[C@H]1CC[C@H]([C@H](O)CCCCCCCCCCCCC2=C[C@H](C)OC2=O)O1` [REL-SOLAMIN] here?
The GI50 was greater than 100 µM.

test system: HT-29; experiment: Growth inhibition of human HT-29 cells after 48 hrs by sulforhodamine B colorimetric assay; format: functional; settings: HT-29, 48 h

With `CCCCCCCCCCCC[C@@H](O)[C@H]1CC[C@H]([C@H](O)CCCCCCCCCCCCC2=C[C@H](C)OC2=O)O1` [REL-SOLAMIN] as the compound, how does the GI50 read?
Its GI50 is greater than 100 µM.

test system: not listed separately; experiment: Growth inhibition of human HBC4 cells after 48 hrs by sulforhodamine B colorimetric assay; format: functional; settings: HBC4, 48 h

For `CCCCCCCCCCCC[C@@H](O)[C@H]1CC[C@H]([C@H](O)CCCCCCCCCCCCC2=C[C@H](C)OC2=O)O1` [REL-SOLAMIN], which GI50 is on record?
The GI50 was greater than 100 µM.

test system: not listed separately; experiment: Growth inhibition of human HCC2998 cells after 48 hrs by sulforhodamine B colorimetric assay; format: functional; settings: HCC 2998, 48 h

Which GI50 does the source give for `CCCCCCCCCCCC[C@@H](O)[C@H]1CC[C@H]([C@H](O)CCCCCCCCCCCCC2=C[C@H](C)OC2=O)O1` [REL-SOLAMIN] here?
The GI50 was greater than 100 µM.

test system: not listed separately; experiment: Growth inhibition of human HCT15 cells after 48 hrs by sulforhodamine B colorimetric assay; format: functional; settings: HCT-15, 48 h

Which GI50 does the source give for `CCCCCCCCCCCC[C@@H](O)[C@H]1CC[C@H]([C@H](O)CCCCCCCCCCCCC2=C[C@H](C)OC2=O)O1` [REL-SOLAMIN] here?
Its GI50 is greater than 100 µM.

test system: SF-268; experiment: Growth inhibition of human SF268 cells after 48 hrs by sulforhodamine B colorimetric assay; format: functional; settings: SF-268, 48 h

For `CCCCCCCCCCCC[C@@H](O)[C@H]1CC[C@H]([C@H](O)CCCCCCCCCCCCC2=C[C@H](C)OC2=O)O1` [REL-SOLAMIN], which GI50 is on record?
Its GI50 is greater than 100 µM.

test system: DU-145; experiment: Growth inhibition of human DU145 cells after 48 hrs by sulforhodamine B colorimetric assay; format: functional; settings: DU-145, 48 h

For `CCCCCCCCCCCC[C@@H](O)[C@H]1CC[C@H]([C@H](O)CCCCCCCCCCCCC2=C[C@H](C)OC2=O)O1` [REL-SOLAMIN], which GI50 is on record?
The GI50 was greater than 100 µM.

test system: not listed separately; experiment: Growth inhibition of human SF295 cells after 48 hrs by sulforhodamine B colorimetric assay; format: functional; settings: SF-295, 48 h

With `CCCCCCCCCCCC[C@@H](O)[C@H]1CC[C@H]([C@H](O)CCCCCCCCCCCCC2=C[C@H](C)OC2=O)O1` [REL-SOLAMIN] as the compound, how does the GI50 read?
Its GI50 is 39.8 µM.

test system: NCI-H460; experiment: Growth inhibition of human NCI-H460 cells after 48 hrs by sulforhodamine B colorimetric assay; format: functional; settings: NCI-H460, 48 h

Which GI50 does the source give for `CCCCCCCCCCCC[C@@H](O)[C@H]1CC[C@H]([C@H](O)CCCCCCCCCCCCC2=C[C@H](C)OC2=O)O1` [REL-SOLAMIN] here?
Its GI50 is greater than 100 µM.

test system: SK-OV-3; experiment: Growth inhibition of human SKOV3 cells after 48 hrs by sulforhodamine B colorimetric assay; format: functional; settings: SK-OV-3, 48 h

With `CCCCCCCCCCCC[C@@H](O)[C@H]1CC[C@H]([C@H](O)CCCCCCCCCCCCC2=C[C@H](C)OC2=O)O1` [REL-SOLAMIN] as the compound, how does the GI50 read?
The GI50 was greater than 100 µM.

test system: not listed separately; experiment: Growth inhibition of human SF539 cells after 48 hrs by sulforhodamine B colorimetric assay; format: functional; settings: SF-539, 48 h

For `CCCCCCCCCCCC[C@@H](O)[C@H]1CC[C@H]([C@H](O)CCCCCCCCCCCCC2=C[C@H](C)OC2=O)O1` [REL-SOLAMIN], which GI50 is on record?
Its GI50 is greater than 100 µM.

test system: not listed separately; experiment: Growth inhibition of human OVCAR8 cells after 48 hrs by sulforhodamine B colorimetric assay; format: functional; settings: OVCAR-8, 48 h

For `CCCCCCCCCCCC[C@@H](O)[C@H]1CC[C@H]([C@H](O)CCCCCCCCCCCCC2=C[C@H](C)OC2=O)O1` [REL-SOLAMIN], which GI50 is on record?
The GI50 was greater than 100 µM.

test system: ACHN; experiment: Growth inhibition of human ACHN cells after 48 hrs by sulforhodamine B colorimetric assay; format: functional; settings: not given

For `CCCCCCCCCCCC[C@@H](O)[C@H]1CC[C@H]([C@H](O)CCCCCCCCCCCCC2=C[C@H](C)OC2=O)O1` [REL-SOLAMIN], which GI50 is on record?
Its GI50 is greater than 100 µM.

test system: not listed separately; experiment: Growth inhibition of human HCT116 cells after 48 hrs by sulforhodamine B colorimetric assay; format: functional; settings: HCT-116, 48 h

Which GI50 does the source give for `CCCCCCCCCCCC[C@@H](O)[C@H]1CC[C@H]([C@H](O)CCCCCCCCCCCCC2=C[C@H](C)OC2=O)O1` [REL-SOLAMIN] here?
Its GI50 is greater than 100 µM.

test system: not listed separately; experiment: Growth inhibition of human OVCAR5 cells after 48 hrs by sulforhodamine B colorimetric assay; format: functional; settings: OVCAR-5, 48 h

For `CCCCCCCCCCCC[C@@H](O)[C@H]1CC[C@H]([C@H](O)CCCCCCCCCCCCC2=C[C@H](C)OC2=O)O1` [REL-SOLAMIN], which GI50 is on record?
The GI50 was greater than 100 µM.

test system: not listed separately; experiment: Growth inhibition of human BSY1 cells after 48 hrs by sulforhodamine B colorimetric assay; format: functional; settings: BSY-1, 48 h

With `CCCCCCCCCCCC[C@@H](O)[C@H]1CC[C@H]([C@H](O)CCCCCCCCCCCCC2=C[C@H](C)OC2=O)O1` [REL-SOLAMIN] as the compound, how does the GI50 read?
The GI50 was greater than 100 µM.

test system: not listed separately; experiment: Growth inhibition of human MKN45 cells after 48 hrs by sulforhodamine B colorimetric assay; format: functional; settings: MKN-45, 48 h

With `CCCCCCCCCCCC[C@@H](O)[C@H]1CC[C@H]([C@H](O)CCCCCCCCCCCCC2=C[C@H](C)OC2=O)O1` [REL-SOLAMIN] as the compound, how does the GI50 read?
Its GI50 is greater than 100 µM.

test system: not listed separately; experiment: Growth inhibition of human OVCAR4 cells after 48 hrs by sulforhodamine B colorimetric assay; format: functional; settings: OVCAR-4, 48 h

Which GI50 does the source give for `CCCCCCCCCCCC[C@@H](O)[C@H]1CC[C@H]([C@H](O)CCCCCCCCCCCCC2=C[C@H](C)OC2=O)O1` [REL-SOLAMIN] here?
Its GI50 is greater than 100 µM.

test system: U-251; experiment: Growth inhibition of human U251 cells after 48 hrs by sulforhodamine B colorimetric assay; format: functional; settings: U-251, 48 h

With `CCCCCCCCCCCC[C@@H](O)[C@H]1CC[C@H]([C@H](O)CCCCCCCCCCCCC2=C[C@H](C)OC2=O)O1` [REL-SOLAMIN] as the compound, how does the GI50 read?
The GI50 was greater than 100 µM.
